Measured values from patent US12195427B2, “MASP-2 inhibitors and methods of use” (priority 2018, dated 2025).

Molecular target: MASP-2 CCP2-SP (Homo sapiens (Human), UniProt O00187)
Test: MASP-2 co-crystallization, X-ray crystallography and structure analysis (H-bonds, van der Waals contacts);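 for Ligand-pharmacophore element distance, pharmacophore element C2: distance from averaged pharmacophore element to bound ligand; missing value means element absent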;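 for Ligand-pharmacophore element distance, pharmacophore element C3: distance from averaged pharmacophore element to bound ligand; missing value means element absent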;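 for Ligand-pharmacophore element distance, pharmacophore element C4: distance from averaged pharmacophore element to bound ligand; missing value means element absent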;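 for Ligand-pharmacophore element distance, pharmacophore element C5: distance from averaged pharmacophore element to bound ligand; missing value means element absent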
Design: van der Waals contact distance, MASP-2 HIS 483 atom CD2 / van der Waals contact distance, MASP-2 HIS 483 atom NE2 / van der Waals contact distance, SER 654 C to compound atom / van der Waals contact distance, SER 654 O to compound atom / van der Waals contact distance, TRP 655 C to compound atom / van der Waals contact distance, MASP-2 GLY 528 atom CA / van der Waals contact distance TRP 655 atom CZ3 / van der Waals contact distance TRP 655 atom N / van der Waals contact distance TRP 655 atom CE3 / van der Waals contact distance GLY 656 atom C / van der Waals contact distance GLY 656 atom CA / van der Waals contact distance GLY 656 atom O / van der Waals contact distance, MASP-2 TYR 607 atom CD1 / van der Waals contact distance, MASP-2 PRO 606 atom O / d(C3,CA1) / d(CA1,N1)2 / d(H4,O1) / d(H4,O2) / d(O1,O2) / d(CA1,O2) / d(CA6,O1) / d(CA6,O2) / d(CA1,C5) / d(O2,H3) / d(N2,C2) / d(CA5,N2) / d(N2,C4) / d(N2,C6) / d(N2,CA3) / d(N2,O3) / d(O4,H2): unit not given beside the values
Conditions: for Ligand-pharmacophore element distance, pharmacophore element C2 / Ligand-pharmacophore element distance, pharmacophore element C3 / Ligand-pharmacophore element distance, pharmacophore element C4 / Ligand-pharmacophore element distance, pharmacophore element C5 / Ligand-pharmacophore element distance, pharmacophore element C6 / Ligand-pharmacophore element distance, pharmacophore element C7 / Ligand-pharmacophore element distance, pharmacophore element CA1 / Ligand-pharmacophore element distance, pharmacophore element CA2 / Ligand-pharmacophore element distance, pharmacophore element CA3 / Ligand-pharmacophore element distance, pharmacophore element CA4 / Ligand-pharmacophore element distance, pharmacophore element CA5 / Ligand-pharmacophore element distance, pharmacophore element CA6: Table A4-1; for Pharmacophore torsion angle a(O1, O2, N2, CA2): Table A7-2
Procedure, shortened: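 First, CCP2-SP constructs with or without a 6His tag are produced in E. coli. Crystals are then soaked once or twice with inhibitor, cryoprotected in 20% glycerol or frozen directly, and diffracted at synchrotron beamlines. Phasing uses molecular replacement with parts of 1Q3X.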

[1] = Table A5-1 pharmacophore: distance between elements, S2/S1 region
[2] = Table A5-2 pharmacophore distance, S3/S4 region
[3] = Table A7-1, between pharmacophore elements of the bound compound
[4] = between pharmacophore elements of the bound compound

Chain of MASP-2 CCP2-SP (O00187 445-686): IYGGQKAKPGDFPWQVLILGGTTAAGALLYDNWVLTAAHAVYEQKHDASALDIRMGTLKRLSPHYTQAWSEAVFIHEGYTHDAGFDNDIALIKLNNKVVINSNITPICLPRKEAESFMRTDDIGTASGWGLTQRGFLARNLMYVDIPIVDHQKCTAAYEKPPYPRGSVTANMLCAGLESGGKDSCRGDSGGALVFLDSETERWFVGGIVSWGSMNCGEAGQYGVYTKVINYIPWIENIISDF
Chain of MASP-2 CCP2-SP (O00187 364-432 partner): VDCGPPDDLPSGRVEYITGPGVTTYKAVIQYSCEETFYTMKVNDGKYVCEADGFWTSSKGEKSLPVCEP

## C[C@H](NC(=O)[C@H]1C[C@@H](c2ccccc2)CCN1)C(=O)NCc1cc(Cl)ccc1O.Cl [1078_12]
  Ligand-pharmacophore element distance, pharmacophore element C2: 0.4
  Ligand-pharmacophore element distance, pharmacophore element C3: 0
  Ligand-pharmacophore element distance, pharmacophore element C4: 0
  Ligand-pharmacophore element distance, pharmacophore element C5: 0.52
  Ligand-pharmacophore element distance, pharmacophore element C6: 0
  Ligand-pharmacophore element distance, pharmacophore element C7: 0
  Ligand-pharmacophore element distance, pharmacophore element CA1: 1.43
  Ligand-pharmacophore element distance, pharmacophore element CA2: 0.64
  Ligand-pharmacophore element distance, pharmacophore element CA3: 0
  Ligand-pharmacophore element distance, pharmacophore element CA4: 0
  Ligand-pharmacophore element distance, pharmacophore element CA5: 0
  Ligand-pharmacophore element distance, pharmacophore element CA6: 0
[1]
  d(CA1,C5): 3.12
  d(CA1,O1): 4.34
  d(CA1,O2): 4.51
  d(CA1,O4): 2.74
  d(H4,O1): 3.08
  d(H4,O2): 3.40
  d(O1,O2): 2.81
  d(O4,H2): 0.98
[2]
  d(N2,C2): 1.45
  d(N2,CA2): 5.74
  d(O2,H3): 2.85
  d(O2,N2): 2.84
Table A6-1 pharmacophore angle
  a(C5, CA1, O1): 161.92
  a(CA1, O1, O2): 111.74
  a(CA1, O4, H2): 127.55
  a(O1, CA1, O4): 67.44
  a(O1, O2, H4): 128.90
Table A6-2 pharmacophore angle
  a(O1, O2, H3): 150.80
  a(O1, O2, N2): 154.56
  a(O2, N2, C2): 130.32
  a(O2, N2, CA2): 157.60
[3]
  Pharmacophore torsion angle a(C5, CA1, O1, H4): 11.21
  Pharmacophore torsion angle a(H4, O1, O2, H3): −120.32
  Pharmacophore torsion angle a(H4, O1, O2, N2): −108.09
  Pharmacophore torsion angle a(O1, H4, O2, CA1): −75.33
  Pharmacophore torsion angle a(O1, O2, N2, C2): 114.97
[4]
  Pharmacophore torsion angle a(O1, O2, N2, CA2): 110.39

## C[C@H](NC(=O)[C@H]1C[C@@H](c2ccccc2)CCN1)C(=O)NCc1cc(Cl)ccc1O.Cl [1078_11]
  Ligand-pharmacophore element distance, pharmacophore element C2: 0.6
  Ligand-pharmacophore element distance, pharmacophore element C3: 0
  Ligand-pharmacophore element distance, pharmacophore element C4: 0
  Ligand-pharmacophore element distance, pharmacophore element C5: 0.41
  Ligand-pharmacophore element distance, pharmacophore element C6: 0
  Ligand-pharmacophore element distance, pharmacophore element C7: 0
  Ligand-pharmacophore element distance, pharmacophore element CA1: 1.64
  Ligand-pharmacophore element distance, pharmacophore element CA2: 0.64
  Ligand-pharmacophore element distance, pharmacophore element CA3: 0
  Ligand-pharmacophore element distance, pharmacophore element CA4: 0
  Ligand-pharmacophore element distance, pharmacophore element CA5: 0
  Ligand-pharmacophore element distance, pharmacophore element CA6: 0
[1]
  d(CA1,C5): 3.12
  d(CA1,O1): 4.69
  d(CA1,O2): 4.58
  d(CA1,O4): 2.75
  d(H4,O1): 2.26
  d(H4,O2): 2.51
  d(O1,O2): 3.42
  d(O4,H2): 0.97
[2]
  d(N2,C2): 1.47
  d(N2,CA2): 5.75
  d(O2,H3): 3.05
  d(O2,N2): 2.97
Table A6-1 pharmacophore angle
  a(C5, CA1, O1): 161.80
  a(CA1, O1, O2): 109.94
  a(CA1, O4, H2): 130.34
  a(O1, CA1, O4): 59.87
  a(O1, O2, H4): 88.73
Table A6-2 pharmacophore angle
  a(O1, O2, H3): 137.81
  a(O1, O2, N2): 142.32
  a(O2, N2, C2): 120.15
  a(O2, N2, CA2): 152.82
[3]
  Pharmacophore torsion angle a(C5, CA1, O1, H4): 37.14
  Pharmacophore torsion angle a(H4, O1, O2, H3): −120.02
  Pharmacophore torsion angle a(H4, O1, O2, N2): −112.40
  Pharmacophore torsion angle a(O1, H4, O2, CA1): −55.96
  Pharmacophore torsion angle a(O1, O2, N2, C2): 136.21
[4]
  Pharmacophore torsion angle a(O1, O2, N2, CA2): 138.54

## Cc1nc(N)ccc1CNC(=O)[C@H](C)NC(=O)[C@H]1C[C@H](Cc2cccc(Cl)c2)CN1.Cl.Cl [1328_2]
  Ligand-pharmacophore element distance, pharmacophore element C2: 0
  Ligand-pharmacophore element distance, pharmacophore element C3: 0.15
  Ligand-pharmacophore element distance, pharmacophore element C4: 1.28
  Ligand-pharmacophore element distance, pharmacophore element C5: 0
  Ligand-pharmacophore element distance, pharmacophore element C6: 0
  Ligand-pharmacophore element distance, pharmacophore element C7: 0
  Ligand-pharmacophore element distance, pharmacophore element CA1: 0.41
  Ligand-pharmacophore element distance, pharmacophore element CA2: 0.43
  Ligand-pharmacophore element distance, pharmacophore element CA3: 0
  Ligand-pharmacophore element distance, pharmacophore element CA4: 0
  Ligand-pharmacophore element distance, pharmacophore element CA5: 0
  Ligand-pharmacophore element distance, pharmacophore element CA6: 0
[1]
  d(C3,CA1): 2.85
  d(CA1,N1)2: 1.38
  d(CA1,O1): 4.43
  d(CA1,O2): 4.01
  d(H4,O1): 4.38
  d(H4,O2): 3.84
  d(O1,O2): 3.08
[2]
  d(N2,C4): 7.87
  d(N2,C4)4: 7.87
  d(N2,CA2): 5.92
  d(O2,H3): 4.54
  d(O2,N2): 2.75
Table A6-1 pharmacophore angle
  a(C3, CA1, O1): 150.10
  a(CA1, O1, O2): 103.89
  a(O1, O2, H4): 136.71
Table A6-1 pharmacophore angle, Methyl-amino-pyridine compounds
  a(N1, CA1, O1) b): 173.89
Table A6-2 pharmacophore angle
  a(O1, O2, H3): 149.68
  a(O1, O2, N2): 139.05
  a(O2, N2, C4): 160.74
  a(O2, N2, C4) 2: 109.44
  a(O2, N2, CA2): 154.85
[3]
  Pharmacophore torsion angle a(C3, CA1, O1, H4): 21.76
  Pharmacophore torsion angle a(H4, O1, O2, H3): 51.26
  Pharmacophore torsion angle a(H4, O1, O2, N2): 134.72
  Pharmacophore torsion angle a(N1, CA1, O1, H4): −4.36
  Pharmacophore torsion angle a(O1, H4, O2, CA1): −83.32
[4]
  Pharmacophore torsion angle a(O1, O2, N2, CA2): 132.29

## C[C@H](NC(=O)[C@H]1C[C@@H](c2ccccc2)CCN1)C(=O)NCc1cnc2[nH]cc(Cl)c2c1 [compound 1433, (2R,4S)—N—((S)-1-(((3-Chloro-1H-pyrrolo[2,3-b]pyridin-5-yl)methyl)amino)-1-oxopropan-2-yl)-4-phenylpiperidine-2-carboxamide]
Table A1 (H-Bonds), GLY 656 N
  H-bond distance to MASP-2 GLY 656 atom N: 3.13
Table A1 (H-Bonds), GLY 656 O
  H-bond distance to MASP-2 GLY 656 atom O: 2.75
Table A1 (H-Bonds), SER 654 O
  H-bond distance to MASP-2 SER 654 atom O: 2.89
Table A2-1
  van der Waals contact distance, MASP-2 HIS 483 atom CD2: 3.73
  van der Waals contact distance, MASP-2 HIS 483 atom NE2: 3.76
Table A2-3
  van der Waals contact distance, MASP-2 PHE 529 atom CE1: 3.77
  van der Waals contact distance, MASP-2 PHE 529 atom CE2: 3.82
Table A2-5: TYR 607 (CE1, CE2, OH), PRO 608 (CD, CG), SER 611 (CA)
  van der Waals contact distance, MASP-2 amino acid atom to compound atom: 3.73
Table A2-9 second part, ARG 630, AA atoms N, NE, NH1
  van der Waals contact distance, MASP-2 amino acid atom to compound atom: 3.49
Table A2-11
  van der Waals contact distance, VAL 653 CG1 to compound atom: 3.71
Table A2-13, MASP-2 TRP 655 CE3, compound atom in line below
  van der Waals contact distance TRP 655 atom CE3: 3.59
Table A2-13, MASP-2 TRP 655 CZ3
  van der Waals contact distance TRP 655 atom CZ3: 3.73
Table A2-13, MASP-2 TRP 655 N
  van der Waals contact distance TRP 655 atom N: 3.68
  Ligand-pharmacophore element distance, pharmacophore element C2: 0.26
  Ligand-pharmacophore element distance, pharmacophore element C3: 0
  Ligand-pharmacophore element distance, pharmacophore element C4: 0
  Ligand-pharmacophore element distance, pharmacophore element C5: 0.2
  Ligand-pharmacophore element distance, pharmacophore element C6: 0
  Ligand-pharmacophore element distance, pharmacophore element C7: 0
  Ligand-pharmacophore element distance, pharmacophore element CA1: 0.98
  Ligand-pharmacophore element distance, pharmacophore element CA2: 0.18
  Ligand-pharmacophore element distance, pharmacophore element CA3: 0
  Ligand-pharmacophore element distance, pharmacophore element CA4: 0
  Ligand-pharmacophore element distance, pharmacophore element CA5: 0
  Ligand-pharmacophore element distance, pharmacophore element CA6: 0
[1]
  d(CA1,C5): 3.47
  d(CA1,O1): 5.49
  d(CA1,O2): 4.76
  d(CA1,O4): 1.77
  d(H4,O1): 3.16
  d(H4,O2): 3.59
  d(O1,O2): 3.46
[2]
  d(N2,C2): 1.51
  d(N2,CA2): 5.79
  d(O2,H3): 2.89
  d(O2,N2): 2.65
Table A6-1 pharmacophore angle
  a(C5, CA1, O1): 151.25
  a(CA1, O1, O2): 97.80
  a(O1, CA1, O4): 65.77
  a(O1, O2, H4): 118.66
Table A6-2 pharmacophore angle
  a(O1, O2, H3): 135.90
  a(O1, O2, N2): 141.60
  a(O2, N2, C2): 129.89
  a(O2, N2, CA2): 155.75
[3]
  Pharmacophore torsion angle a(C5, CA1, O1, H4): 6.40
  Pharmacophore torsion angle a(H4, O1, O2, H3): 109.26
  Pharmacophore torsion angle a(H4, O1, O2, N2): −171.69
  Pharmacophore torsion angle a(O1, H4, O2, CA1): −96.26
  Pharmacophore torsion angle a(O1, O2, N2, C2): 118.46
[4]
  Pharmacophore torsion angle a(O1, O2, N2, CA2): 127.94
